# From patent US20230265151A1, “GIP/GLP1 CO-AGONIST COMPOUNDS” (priority 2020, published 2023)
# Read-outs that look alike come from different tables or passages of the source.
# Columns and labels:
# Type in all cases: cell-based
# [1] = biological target: T1, hGIPR (Homo sapiens, UniProt P48546); assay: Functional cAMP formation (HTRF) in HEK-293 clonal cells expressing hGIPR, 0.1% bovine casein, without or with 1.0% human serum albumin
# T1 construct: expressed in transfected cells
# T1 sequence (P48546 22-466): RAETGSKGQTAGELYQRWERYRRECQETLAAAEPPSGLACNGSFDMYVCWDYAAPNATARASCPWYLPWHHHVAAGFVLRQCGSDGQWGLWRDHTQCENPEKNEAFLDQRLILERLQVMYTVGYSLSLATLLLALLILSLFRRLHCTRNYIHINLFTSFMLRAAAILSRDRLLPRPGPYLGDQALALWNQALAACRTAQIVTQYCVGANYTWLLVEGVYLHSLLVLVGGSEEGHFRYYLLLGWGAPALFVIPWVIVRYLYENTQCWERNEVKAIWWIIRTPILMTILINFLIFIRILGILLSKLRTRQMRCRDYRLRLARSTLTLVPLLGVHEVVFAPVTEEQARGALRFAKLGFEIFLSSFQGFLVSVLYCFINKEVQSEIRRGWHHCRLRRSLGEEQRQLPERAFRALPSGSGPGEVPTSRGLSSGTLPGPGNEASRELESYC
# Description: (§1) After a 30-min incubation at 37° C., the resulting increase in intracellular cAMP is quantitatively determined using a CisBio cAMP Dynamic 2 HTRF Assay Kit (62AM4PEJ). Briefly, cAMP levels within the cell are detected by adding the cAMP-d2 conjugate in cell lysis buffer (10 µL) followed by the antibody anti-cAMP-Eu^3+-Cryptate, also in cell lysis buffer (10 µL). The resulting competitive assay is incubated for at least 60 min at room temperature, and then is detected using a PerkinElmer Envision® instrument with excitation at 320 nm and emission at 665 nm and 620 nm. Envision units (emission at 665 nm/620 nm* 10,000) are inversely proportional to the amount of cAMP present and are converted to nM cAMP per well us-ing a cAMP standard curve. […] A relative EC50 value and percent top (Emax) are derived by non-linear regression analysis using the percent maximal response vs. the concentration of peptide added, fitted to a four-parameter logistic equation.
# [2] = biological target: T2, hGCGR (Homo sapiens, UniProt P47871); assay: Functional cAMP formation (HTRF) in HEK-293 clonal cells expressing hGCGR, 0.1% bovine casein, without or with 1.0% human serum albumin; conditions: geometric mean, read-out: hGCGR EC50, nM (SEM, n)
# T2 construct: expressed in transfected cells
# T2 sequence (P47871 26-477): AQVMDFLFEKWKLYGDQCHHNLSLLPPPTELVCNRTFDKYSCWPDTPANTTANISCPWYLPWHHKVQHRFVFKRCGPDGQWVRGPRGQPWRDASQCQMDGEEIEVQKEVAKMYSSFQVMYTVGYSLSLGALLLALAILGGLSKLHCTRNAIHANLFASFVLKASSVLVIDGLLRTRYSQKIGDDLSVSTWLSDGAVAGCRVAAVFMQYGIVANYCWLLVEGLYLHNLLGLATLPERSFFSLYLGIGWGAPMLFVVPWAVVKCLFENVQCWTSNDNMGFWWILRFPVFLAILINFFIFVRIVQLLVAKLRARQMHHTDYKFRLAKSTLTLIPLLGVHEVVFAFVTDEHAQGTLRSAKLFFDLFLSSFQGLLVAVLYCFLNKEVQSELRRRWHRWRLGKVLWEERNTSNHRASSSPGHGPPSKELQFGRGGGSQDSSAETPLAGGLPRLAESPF
# Description: as §1
# [3] = biological target: hGLP-1R (Homo sapiens, UniProt P43220); assay: Functional cAMP formation (HTRF) in HEK-293 clonal cells expressing hGLP-1R, 0.1% bovine casein, without or with 1.0% human serum albumin; design: expressed in transfected cells; conditions: percent of maximal response to GLP-1(7-36)NH2
# Chain of hGLP-1R (P43220 24-463): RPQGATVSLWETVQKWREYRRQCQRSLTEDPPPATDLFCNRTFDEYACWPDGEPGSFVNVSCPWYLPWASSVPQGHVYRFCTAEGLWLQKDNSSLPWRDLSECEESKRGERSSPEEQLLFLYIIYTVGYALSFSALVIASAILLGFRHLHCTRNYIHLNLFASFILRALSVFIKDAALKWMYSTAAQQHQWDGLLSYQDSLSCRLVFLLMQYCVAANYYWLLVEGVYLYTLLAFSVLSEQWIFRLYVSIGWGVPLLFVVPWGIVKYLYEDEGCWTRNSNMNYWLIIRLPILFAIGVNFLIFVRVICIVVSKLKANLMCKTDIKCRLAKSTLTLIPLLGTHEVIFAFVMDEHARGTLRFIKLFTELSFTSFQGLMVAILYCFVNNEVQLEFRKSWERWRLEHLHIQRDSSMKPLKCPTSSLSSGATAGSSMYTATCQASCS
# Description: as §1
# [4] = HEK293, 0.1% bovine casein and 1.0% human serum albumin, 37° C., percent of maximal response to GIP(1-42)NH2, read-out: hGIPR Emax, % ± SEM
# [5] = cAMP, incubated at 37° C., 0.1% bovine casein (no human serum albumin)
smiles,measurement,setting,value
CC[C@H](C)[C@H](NC(=O)[C@H](CC(C)C)NC(=O)[C@](C)(Cc1ccc(O)cc1)NC(=O)[C@@H](CCC(=O)O)NC(=O)[C@@H](NC(=O)[C@H](Cc1ccccc1)NC(=O)[C@H](CCC(=O)O)NC(=O)C(C)(C)NC(=O)[C@H](CCC(N)=O)NC(=O)[C@H](C)NC(=O)[C@H](CCCCNC(=O)[C@@H](N)CCCCNC(=O)CC[C@H](NC(=O)CC[C@H](NC(=O)CCCCCCCCCCCCC(=O)O)C(=O)O)C(=O)O)NC(=O)[C@H](CCCN)NC(=O)[C@H](CC(=O)O)NC(=O)[C@H](CC(C)C)NC(=O)[C@](C)(CC(C)C)NC(=O)[C@@H](NC(=O)[C@H](CO)NC(=O)[C@H](Cc1ccncc1)NC(=O)[C@H](CC(=O)O)NC(=O)[C@H](CO)NC(=O)[C@@H](NC(=O)[C@](C)(Cc1ccccc1F)NC(=O)[C@@H](NC(=O)CNC(=O)[C@H](CCC(=O)O)NC(=O)C(C)(C)NC(=O)[C@@H](N)Cc1ccc(O)cc1)[C@@H](C)O)[C@@H](C)O)[C@@H](C)CC)[C@@H](C)CC)C(=O)N[C@@H](CCC(=O)O)C(=O)NCC(=O)NCC(=O)N[C@@H](CCCCNC(=O)[C@@H](N)CCCCNC(=O)CC[C@H](NC(=O)CC[C@H](NC(=O)CCCCCCCCCCCCC(=O)O)C(=O)O)C(=O)O)C(=O)N[C@@H](CO)C(=O)N[C@@H](CO)C(=O)NCC(=O)N[C@@H](C)C(=O)N1CCC[C@H]1C(=O)N1CCC[C@H]1C(=O)N1CCC[C@H]1C(=O)N[C@@H](CO)C(N)=O [Example 39],Emax,[1]; [4],86.8 ± 3.27%
same,Emax,"[1]; HEK293, percent of maximal response to GIP(1-42)NH2, 37° C., 0.1% bovine casein, arithmetic mean, read-out: hGIPR Emax, % ± SEM",96.5 ± 1.44%
CC[C@H](C)[C@H](NC(=O)[C@H](CC(C)C)NC(=O)[C@](C)(Cc1ccc(O)cc1)NC(=O)[C@@H](CCC(=O)O)NC(=O)[C@@H](NC(=O)[C@](C)(Cc1ccccc1)NC(=O)[C@H](CCC(=O)O)NC(=O)C(C)(C)NC(=O)[C@H](CCC(N)=O)NC(=O)[C@H](C)NC(=O)[C@H](CCCCNC(=O)COCCOCCNC(=O)COCCOCCNC(=O)CC[C@H](NC(=O)CCCCCCCCCCCCC(=O)O)C(=O)O)NC(=O)[C@H](CCCN)NC(=O)[C@H](CC(=O)O)NC(=O)[C@H](CC(C)C)NC(=O)[C@](C)(CC(C)C)NC(=O)[C@@H](NC(=O)[C@H](CO)NC(=O)[C@@H](NC(=O)[C@H](CC(=O)O)NC(=O)[C@H](CO)NC(=O)[C@@H](NC(=O)[C@](C)(Cc1ccccc1F)NC(=O)[C@@H](NC(=O)CNC(=O)[C@H](CCC(=O)O)NC(=O)C(C)(C)NC(=O)[C@@H](N)Cc1ccc(O)cc1)[C@@H](C)O)[C@@H](C)O)C(C)C)[C@@H](C)CC)[C@@H](C)CC)C(=O)N[C@@H](CCC(=O)O)C(=O)NCC(=O)NCC(=O)N[C@@H](CCCCNC(=O)COCCOCCNC(=O)COCCOCCNC(=O)CC[C@H](NC(=O)CCCCCCCCCCCCC(=O)O)C(=O)O)C(=O)N[C@@H](CO)C(=O)N[C@@H](CO)C(=O)NCC(=O)N[C@@H](C)C(=O)N1CCC[C@H]1C(=O)N1CCC[C@H]1C(=O)N1CCC[C@H]1C(=O)N[C@@H](CO)C(N)=O [Example 92],EC50,"[2]; 0.1% bovine casein and 1.0% human serum albumin, 37° C.",> 9950 nM
same,EC50,[2]; [5],> 9950 nM
CC[C@H](C)[C@H](NC(=O)[C@H](CC(C)C)NC(=O)[C@](C)(Cc1ccc(O)cc1)NC(=O)[C@@H](CCC(=O)O)NC(=O)[C@@H](NC(=O)[C@H](Cc1ccccc1)NC(=O)[C@H](CCC(=O)O)NC(=O)C(C)(C)NC(=O)[C@H](CCC(N)=O)NC(=O)[C@H](C)NC(=O)[C@H](CCCCNC(=O)COCCOCCNC(=O)COCCOCCNC(=O)CC[C@H](NC(=O)CCCCCCCCCCCCC(=O)O)C(=O)O)NC(=O)[C@H](CCCN)NC(=O)[C@H](CC(=O)O)NC(=O)[C@H](CC(C)C)NC(=O)[C@](C)(CC(C)C)NC(=O)[C@@H](NC(=O)[C@H](CO)NC(=O)[C@H](Cc1ccc(C(=O)O)cc1)NC(=O)[C@H](CC(=O)O)NC(=O)[C@H](CO)NC(=O)[C@@H](NC(=O)[C@](C)(Cc1ccccc1F)NC(=O)[C@@H](NC(=O)CNC(=O)[C@H](CCC(=O)O)NC(=O)C(C)(C)NC(=O)[C@@H](N)Cc1ccc(O)cc1)[C@@H](C)O)[C@@H](C)O)[C@@H](C)CC)[C@@H](C)CC)C(=O)N[C@@H](CCC(=O)O)C(=O)NCC(=O)NCC(=O)N[C@@H](CCCCNC(=O)COCCOCCNC(=O)COCCOCCNC(=O)CC[C@H](NC(=O)CCCCCCCCCCCCC(=O)O)C(=O)O)C(=O)N[C@@H](CO)C(=O)N[C@@H](CO)C(=O)NCC(=O)N[C@@H](C)C(=O)N1CCC[C@H]1C(=O)N1CCC[C@H]1C(=O)N1CCC[C@H]1C(=O)N[C@@H](CO)C(N)=O [Example 96],EC50,[2]; [5],> 9950 nM
CC[C@H](C)[C@H](NC(=O)[C@H](CC(C)C)NC(=O)[C@](C)(Cc1ccc(O)cc1)NC(=O)[C@@H](CCC(=O)O)NC(=O)[C@@H](NC(=O)[C@H](Cc1ccccc1)NC(=O)[C@H](CCC(=O)O)NC(=O)C(C)(C)NC(=O)[C@H](CCC(N)=O)NC(=O)[C@H](C)NC(=O)[C@H](CCCCNC(=O)COCCOCCNC(=O)COCCOCCNC(=O)CCCCCCCCCCCCC(=O)O)NC(=O)[C@H](CCCN)NC(=O)[C@H](CC(=O)O)NC(=O)[C@H](CC(C)C)NC(=O)[C@](C)(CC(C)C)NC(=O)[C@@H](NC(=O)[C@H](CO)NC(=O)[C@H](Cc1ccc2ccccc2c1)NC(=O)[C@H](CC(=O)O)NC(=O)[C@H](CO)NC(=O)[C@@H](NC(=O)[C@](C)(Cc1ccccc1F)NC(=O)[C@@H](NC(=O)CNC(=O)[C@H](CCC(=O)O)NC(=O)C(C)(C)NC(=O)[C@@H](N)Cc1ccc(O)cc1)[C@@H](C)O)[C@@H](C)O)[C@@H](C)CC)[C@@H](C)CC)C(=O)N[C@@H](CCC(=O)O)C(=O)NCC(=O)NCC(=O)N1CCC[C@H]1C(=O)N[C@@H](CO)C(=O)N[C@@H](CO)C(=O)NCC(=O)N[C@@H](C)C(=O)N1CCC[C@H]1C(=O)N1CCC[C@H]1C(=O)N1CCC[C@H]1C(=O)N[C@@H](CO)C(=O)N[C@@H](CCCCNC(=O)COCCOCCNC(=O)COCCOCCNC(=O)CCCCCCCCCCCCC(=O)O)C(N)=O [Example 257],Emax,[1]; [4],72.2%
same,Emax,"[1]; HEK293, cAMP, 37° C., 0.1% bovine casein, percent of maximal response to GIP(1-42)NH2, arithmetic mean, read-out: hGIPR Emax, % ± SEM",90.3%
same,Emax,"[3]; HEK293, cAMP, 37° C., 0.1% bovine casein, arithmetic mean, read-out: hGLP-1R Emax, % ± SEM",82%
CC[C@H](C)[C@H](NC(=O)[C@H](CC(C)C)NC(=O)[C@](C)(Cc1ccc(O)cc1)NC(=O)[C@@H](CCC(=O)O)NC(=O)[C@@H](NC(=O)[C@H](Cc1ccccc1)NC(=O)[C@H](CCCN)NC(=O)C(C)(C)NC(=O)[C@H](CCC(N)=O)NC(=O)[C@H](C)NC(=O)[C@H](CCCCNC(=O)COCCOCCNC(=O)COCCOCCNC(=O)CC[C@H](NC(=O)CCCCCCCCCOc1ccc(C(=O)O)cc1)C(=O)O)NC(=O)[C@H](CCCN)NC(=O)[C@H](CC(=O)O)NC(=O)[C@H](CC(C)C)NC(=O)[C@](C)(CC(C)C)NC(=O)[C@@H](NC(=O)C(C)(C)NC(=O)[C@H](Cc1ccncc1)NC(=O)[C@H](CC(=O)O)NC(=O)[C@H](CO)NC(=O)[C@@H](NC(=O)[C@](C)(Cc1ccccc1F)NC(=O)[C@@H](NC(=O)CNC(=O)[C@H](CCC(=O)O)NC(=O)C(C)(C)NC(=O)[C@@H](N)Cc1ccc(O)cc1)[C@@H](C)O)[C@@H](C)O)[C@@H](C)CC)[C@@H](C)CC)C(=O)N[C@@H](CCCCNC(=O)COCCOCCNC(=O)COCCOCCNC(=O)CC[C@H](NC(=O)CCCCCCCCCOc1ccc(C(=O)O)cc1)C(=O)O)C(=O)NCC(=O)NCC(=O)N1CCC[C@H]1C(=O)N[C@@H](CO)C(=O)N[C@@H](CO)C(=O)NCC(=O)N[C@@H](C)C(=O)N1CCC[C@H]1C(=O)N1CCC[C@H]1C(=O)N1CCC[C@H]1C(=O)N[C@@H](CO)C(N)=O [Example 351],Emax,"[1]; HEK293, read-out: hGIPR Emax, % ± SEM, cAMP, 37° C., 0.1% bovine casein and 1.0% human serum albumin, percent of maximal response to GIP(1-42)NH2",67.9%
same,Emax,"[3]; HEK293, read-out: hGLP-1R Emax, % ± SEM, cAMP, 37° C., 0.1% bovine casein and 1.0% human serum albumin",91%
same,Emax,"[3]; HEK293, read-out: hGLP-1R Emax, % ± SEM, cAMP, 37° C., 0.1% bovine casein, arithmetic mean",100%
